# Experimental data published in ChEMBL document CHEMBL1156541 (Bioorg Med Chem, 2008).
# What was measured:
# [1] = biological target: cGMP-specific 3',5'-cyclic phosphodiesterase (Homo sapiens, UniProt O76074); test: Inhibition of PDE5
# [2] = Octanol-water partition coefficient, log P of the compound; type: physicochemical
# [3] = Inhibition of PDE5
IC50 [1] [nM],SMILES,other results
20,CCCCN1C(=O)[C@H]2Cc3c([nH]c4ccccc34)[C@H](c3ccc(Cl)cc3)N2C1=O (relative stereo),–
–,CCCCN1C(=O)c2nc(-c3cc(S(=O)(=O)N4CCN(C)CC4)ccc3OCC)[nH]c(=O)c2C1=O,logP [2]: 1.86
912,CCCCN1C(=O)[C@H]2Cc3c([nH]c4ccccc34)[C@@H](c3ccc(C#N)cc3)N2C1=O (relative stereo),–
20,CCOc1ccc([C@H]2c3[nH]c4ccccc4c3C[C@@H]3C(=O)N(Cc4cccnc4)C(=O)N23)cc1 (relative stereo),–
10,CCOc1ccc([C@@H]2c3[nH]c4ccccc4c3C[C@@H]3C(=O)N(C)C(=O)N23)cc1 (relative stereo),–
20,CCCCN1C(=O)[C@H]2Cc3c([nH]c4ccccc34)[C@H](c3ccccc3)N2C1=O (relative stereo),–
100,CCOc1ccc([C@H]2c3[nH]c4ccccc4c3C[C@@H]3C(=O)N(CCn4cccc4)C(=O)N23)cc1 (relative stereo),–
1000,CCCCN1C(=O)[C@H]2Cc3c([nH]c4ccccc34)[C@H](c3ccccc3OC)N2C1=O (relative stereo),–
–,CCCc1nn(C)c2c(=O)[nH]c(-c3ccccc3[N+](=O)[O-])nc12,pIC50 [3]: 5.36
–,CCCCN1C(=O)[C@H]2CC=C(c3cc(S(=O)(=O)N4CCN(C)CC4)ccc3OCC)CN2C1=O,logP [2]: 2.4
7.08,CCOc1ccc([C@H]2c3[nH]c4ccccc4c3C[C@@H]3C(=O)N(CC)C(=O)N23)cc1 (relative stereo),–
302,CCCCN1C(=O)[C@H]2Cc3c([nH]c4ccccc34)[C@H](c3ccc(C#N)cc3)N2C1=O (relative stereo),–
81.3,CCCc1n[nH]c2c(=O)[nH]c(-c3ccccc3)nc12,–
7.08,CCOc1ccc([C@@H]2c3[nH]c4ccccc4c3C[C@@H]3C(=O)N(C4CCCCC4)C(=O)N23)cc1,–
–,CCCc1nn(C)c2c(=O)[nH]c(-c3ccccc3OCC3CC3)nc12,pIC50 [3]: 6.02
50.1,CCCCN1C(=O)[C@H]2Cc3c([nH]c4ccccc34)[C@@H](c3ccc(Cl)cc3)N2C1=O (relative stereo),–
50.1,CCCCN1C(=O)[C@H]2Cc3c([nH]c4ccccc34)[C@@H](c3cccc(Cl)c3)N2C1=O (relative stereo),–
–,CCCCN1C(=O)C2=C(N=C(c3cc(S(=O)(=O)N4CCN(C)CC4)ccc3OCC)NC2)C1=O,logP [2]: 0.984
3.98,CCOc1ccc([C@@H]2c3[nH]c4ccccc4c3C[C@@H]3C(=O)N(Cc4ccccc4)C(=O)N23)cc1 (relative stereo),–
–,CCCc1nn(C)c2c(=O)[nH]c(-c3cc(S(=O)(=O)N4CCNCC4)ccc3OCC)nc12,pIC50 [3]: 8.24
4470,CCCc1nn(C)c2c(=O)[nH]c(-c3ccccc3)nc12,–
20,CCOc1ccc([C@H]2c3[nH]c4ccccc4c3C[C@@H]3C(=O)NC(=O)N23)cc1 (relative stereo),–
302,CCCCN1C(=O)[C@H]2Cc3c([nH]c4ccccc34)[C@@H](c3ccncc3)N2C1=O (relative stereo),–

IC50 [1] [nM],SMILES,other results
–,CCCCN1C(=O)[C@H]2CC=C(c3cc(S(=O)(=O)N4CCN(CC)CC4)ccc3OCC)CN2C1=O,logP [2]: 2.77
–,CCOc1ccc(S(=O)(=O)N2CCN(CC)CC2)cc1C1=CC[C@@H]2C(=O)N(C)CC(=O)N2C1,logP [2]: 0.792
6.03,CCOc1ccc([C@H]2c3[nH]c4ccccc4c3C[C@@H]3C(=O)N(CCc4ccccn4)C(=O)N23)cc1 (relative stereo),–
1000,CCCc1nn(C)c2c(=O)[nH]c(-c3ccccc3O)nc12,–
50.1,CCCCN1C(=O)[C@H]2Cc3c([nH]c4ccccc34)[C@H](c3cccc(Cl)c3)N2C1=O (relative stereo),–
91.2,CCCCN1C(=O)[C@H]2Cc3c([nH]c4ccccc34)[C@@H](c3cccnc3)N2C1=O (relative stereo),–
30.2,CCCCN1C(=O)[C@H]2Cc3c([nH]c4ccccc34)[C@@H](c3ccsc3)N2C1=O (relative stereo),–
100,CCCCN1C(=O)[C@H]2Cc3c([nH]c4ccccc34)[C@@H](c3ccoc3)N2C1=O (relative stereo),–
2000,CCCCN1C(=O)[C@H]2Cc3c(n(C)c4ccccc34)[C@H](c3ccc(OC)cc3)N2C1=O (relative stereo),–
–,CCCCN1C(=O)[C@H]2CNC(c3cc(S(=O)(=O)N4CCN(CC)CC4)ccc3OCC)=NN2C1=O,logP [2]: 1.25
3.02,CCOc1ccc([C@H]2c3[nH]c4ccccc4c3C[C@@H]3C(=O)N(C4CCCCC4)C(=O)N23)cc1 (relative stereo),–
–,CCOc1ccc(S(=O)(=O)N2CCN(C)CC2)cc1C1=CC[C@@H]2C(=O)N(C)CC(=O)N2C1,logP [2]: 0.416
10,CCOc1ccc([C@@H]2c3[nH]c4ccccc4c3C[C@@H]3C(=O)N(CC)C(=O)N23)cc1 (relative stereo),–
–,CCCc1nn(C)c2c(=O)[nH]c(-c3cc(S(=O)(=O)N4CCN(C)CC4)ccc3OCC)nc12,logP [2]: 2.51
18.2,CCOc1ccc([C@H]2c3[nH]c4ccccc4c3C[C@@H]3C(=O)N(Cc4ccccc4)C(=O)N23)cc1 (relative stereo),–
2.09,CCCc1nn(C)c2c(=O)[nH]c(-c3cc(S(=O)(=O)N4CCC(C(N)=O)CC4)ccc3OCC)nc12,–
1.91,CCCc1nn(C)c2c(=O)[nH]c(-c3cc(S(=O)(=O)N4CCN(CCO)CC4)ccc3OCC)nc12 [LODENAFIL],–
30.2,CCOc1ccc([C@H]2c3[nH]c4ccccc4c3C[C@@H]3C(=O)N(CCN(C)C)C(=O)N23)cc1 (relative stereo),–
–,CCCc1nc(C)c2c(=O)[nH]c(-c3cc(S(=O)(=O)N4CCN(CC)CC4)ccc3OCC)nn12,logP [2]: 2.56
–,CCCCN1C(=O)[C@H]2C(=O)NC(c3cc(S(=O)(=O)N4CCN(CC)CC4)ccc3OCC)=NN2C1=O,logP [2]: 0.574
60.3,CCCCN1C(=O)[C@H]2Cc3c([nH]c4ccccc34)[C@@H](c3ccccc3)N2C1=O (relative stereo),–
–,CN1CC(=O)N2[C@H](c3ccc4c(c3)OCO4)c3[nH]c4ccccc4c3C[C@@H]2C1=O,logP [2]: 2.36
